Experimental data published in the supplement of paper PMC10307832.

What was measured:
Assay in all cases: relative viability (nuclei count vs DMSO), 5 days (fraction); higher = more cells survive
ABC-1 = system: ABC-1
Summary of the method: (§1)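 After 5 days of treatment, lung cancer cells in 1536-well plates were fixed and stained in a single step (final 0.05% Triton X-100, 1% formaldehyde, 1 ug/ml Hoechst) and their nuclei counted on 4× images. Treatment had been applied by pin tool the day after seeding as one drug alone or as a fixed anchor-drug dose with five library-drug doses (not always all listed) in √10 steps. Relative viability is the nuclei count of treated wells divided by that of vehicle wells, and values are medians of duplicate plates.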

CAL-12T = system: CAL-12T
Summary of the method: as §1

ChaGo-K-1 = system: ChaGo-K-1
Summary of the method: as §1

EMC-BAC-2 = system: EMC-BAC-2
Summary of the method: as §1

EPLC-272H = system: EPLC-272H
Summary of the method: as §1

HCC-15 = system: HCC-15
Summary of the method: as §1

HCC-78 = system: HCC-78
Summary of the method: as §1

HOP-62 = system: HOP-62
Summary of the method: as §1

LXF-289 = system: LXF-289
Summary of the method: as §1

NCI-H1666 = system: NCI-H1666
Summary of the method: as §1

NCI-H1755 = system: NCI-H1755
Summary of the method: as §1

NCI-H1915 = system: NCI-H1915
Summary of the method: as §1

NCI-H1975 = system: NCI-H1975
Summary of the method: as §1

NCI-H2085 = system: NCI-H2085
Summary of the method: as §1

NCI-H2126 = system: NCI-H2126
Summary of the method: as §1

NCI-H3122 = system: NCI-H3122
Summary of the method: as §1

NCI-H322M = system: NCI-H322M
Summary of the method: as §1

NCI-H358 = system: NCI-H358
Summary of the method: as §1

NCI-H441 = system: NCI-H441
Summary of the method: as §1

## Nc1ccn([C@@H]2O[C@H](CO)[C@@H](O)[C@@H]2O)c(=O)n1 [Cytarabine] + NC(=O)Nc1cc(-c2cccc(F)c2)sc1C(=O)N[C@H]1CCCNC1 [AZD7762] (partner 0.2 µM)
ABC-1; first compound 0.005 µM
  relative viability: 0.626
ABC-1; first compound 0.01581 µM
  relative viability: 0.899
ABC-1; first compound 0.05 µM
  relative viability: 0.745
ABC-1; first compound 0.1581 µM
  relative viability: 0.744
ABC-1; first compound 0.5 µM
  relative viability: 0.666
CAL-12T; first compound 0.005 µM
  relative viability: 0.611
CAL-12T; first compound 0.01581 µM
  relative viability: 0.405
CAL-12T; first compound 0.05 µM
  relative viability: 0.248
CAL-12T; first compound 0.1581 µM
  relative viability: 0.208
CAL-12T; first compound 0.5 µM
  relative viability: 0.221
ChaGo-K-1; first compound 0.005 µM
  relative viability: 0.877
ChaGo-K-1; first compound 0.01581 µM
  relative viability: 0.643
ChaGo-K-1; first compound 0.05 µM
  relative viability: 0.439
ChaGo-K-1; first compound 0.1581 µM
  relative viability: 0.249
ChaGo-K-1; first compound 0.5 µM
  relative viability: 0.199
EMC-BAC-2; first compound 0.005 µM
  relative viability: 1.09
EMC-BAC-2; first compound 0.01581 µM
  relative viability: 0.97
EMC-BAC-2; first compound 0.05 µM
  relative viability: 0.674
EMC-BAC-2; first compound 0.1581 µM
  relative viability: 0.344
EMC-BAC-2; first compound 0.5 µM
  relative viability: 0.308
EPLC-272H; first compound 0.005 µM
  relative viability: 0.335
EPLC-272H; first compound 0.01581 µM
  relative viability: 0.273
EPLC-272H; first compound 0.05 µM
  relative viability: 0.117
EPLC-272H; first compound 0.1581 µM
  relative viability: 0.0659
EPLC-272H; first compound 0.5 µM
  relative viability: 0.0636
HCC-15; first compound 0.005 µM
  relative viability: 1.11
HCC-15; first compound 0.01581 µM
  relative viability: 1.52
HCC-15; first compound 0.05 µM
  relative viability: 1.45
HCC-15; first compound 0.1581 µM
  relative viability: 1.06
HCC-15; first compound 0.5 µM
  relative viability: 0.913
HCC-78; first compound 0.005 µM
  relative viability: 0.614
HCC-78; first compound 0.01581 µM
  relative viability: 0.779
HCC-78; first compound 0.05 µM
  relative viability: 0.486
HCC-78; first compound 0.1581 µM
  relative viability: 0.374
HCC-78; first compound 0.5 µM
  relative viability: 0.314
HOP-62; first compound 0.005 µM
  relative viability: 0.391
HOP-62; first compound 0.01581 µM
  relative viability: 0.157
HOP-62; first compound 0.05 µM
  relative viability: 0.203
HOP-62; first compound 0.1581 µM
  relative viability: 0.107
HOP-62; first compound 0.5 µM
  relative viability: 0.0888
LXF-289; first compound 0.005 µM
  relative viability: 0.927
LXF-289; first compound 0.01581 µM
  relative viability: 0.85
LXF-289; first compound 0.05 µM
  relative viability: 0.442
LXF-289; first compound 0.1581 µM
  relative viability: 0.123
LXF-289; first compound 0.5 µM
  relative viability: 0.0877
NCI-H1666; first compound 0.005 µM
  relative viability: 0.943
NCI-H1666; first compound 0.01581 µM
  relative viability: 0.768
NCI-H1666; first compound 0.05 µM
  relative viability: 0.666
NCI-H1666; first compound 0.1581 µM
  relative viability: 0.444
NCI-H1666; first compound 0.5 µM
  relative viability: 0.413
NCI-H1755; first compound 0.005 µM
  relative viability: 0.501
NCI-H1755; first compound 0.01581 µM
  relative viability: 0.314
NCI-H1755; first compound 0.05 µM
  relative viability: 0.334
NCI-H1755; first compound 0.1581 µM
  relative viability: 0.372
NCI-H1755; first compound 0.5 µM
  relative viability: 0.298
NCI-H1915; first compound 0.005 µM
  relative viability: 0.579
NCI-H1915; first compound 0.01581 µM
  relative viability: 0.386
NCI-H1915; first compound 0.05 µM
  relative viability: 0.241
NCI-H1915; first compound 0.1581 µM
  relative viability: 0.155
NCI-H1915; first compound 0.5 µM
  relative viability: 0.131
NCI-H1975; first compound 0.005 µM
  relative viability: 0.679
NCI-H1975; first compound 0.01581 µM
  relative viability: 0.581
NCI-H1975; first compound 0.05 µM
  relative viability: 0.388
NCI-H1975; first compound 0.1581 µM
  relative viability: 0.321
NCI-H1975; first compound 0.5 µM
  relative viability: 0.234
NCI-H2085; first compound 0.005 µM
  relative viability: 0.997
NCI-H2085; first compound 0.01581 µM
  relative viability: 0.997
NCI-H2085; first compound 0.05 µM
  relative viability: 0.956
NCI-H2085; first compound 0.1581 µM
  relative viability: 0.694
NCI-H2085; first compound 0.5 µM
  relative viability: 0.516
NCI-H2126; first compound 0.005 µM
  relative viability: 0.965
NCI-H2126; first compound 0.01581 µM
  relative viability: 0.936
NCI-H2126; first compound 0.05 µM
  relative viability: 0.808
NCI-H2126; first compound 0.1581 µM
  relative viability: 0.361
NCI-H2126; first compound 0.5 µM
  relative viability: 0.267
NCI-H3122; first compound 0.005 µM
  relative viability: 0.943
NCI-H3122; first compound 0.01581 µM
  relative viability: 0.585
NCI-H3122; first compound 0.05 µM
  relative viability: 0.397
NCI-H3122; first compound 0.1581 µM
  relative viability: 0.184
NCI-H3122; first compound 0.5 µM
  relative viability: 0.138
NCI-H322M; first compound 0.005 µM
  relative viability: 0.405
NCI-H322M; first compound 0.01581 µM
  relative viability: 0.494
NCI-H322M; first compound 0.05 µM
  relative viability: 0.405
NCI-H322M; first compound 0.1581 µM
  relative viability: 0.371
NCI-H322M; first compound 0.5 µM
  relative viability: 0.385
NCI-H358; first compound 0.005 µM
  relative viability: 0.419
NCI-H358; first compound 0.01581 µM
  relative viability: 0.229
NCI-H358; first compound 0.05 µM
  relative viability: 0.208
NCI-H358; first compound 0.1581 µM
  relative viability: 0.221
NCI-H358; first compound 0.5 µM
  relative viability: 0.182
NCI-H441; first compound 0.005 µM
  relative viability: 0.982
NCI-H441; first compound 0.01581 µM
  relative viability: 0.912
NCI-H441; first compound 0.05 µM
  relative viability: 0.814
NCI-H441; first compound 0.1581 µM
  relative viability: 0.306
NCI-H441; first compound 0.5 µM
  relative viability: 0.211
